Reference: the NIST ThermoML archive (doi:10.1016/j.jct.2013.09.007)
Numbers after ± are expanded uncertainties.

What was measured:
[1] = activity coefficient (dimensionless); of the first substance listed, at infinite dilution; xn = mol fraction of the nth substance listed; details: 101 kPa, Liquid, Chromatography, x1 = 0
[2] = 101.33 kPa, Liquid, Vibrating tube method

SMILES | activity coefficient ([1]; 308.15 K) | activity coefficient ([1]; 318.15 K) | activity coefficient ([1]; 328.15 K) | activity coefficient ([1]; 338.15 K) | activity coefficient ([1]; 348.15 K) | activity coefficient ([1]; 358.15 K) | activity coefficient ([1]; 368.15 K) | mass density ([2]; 308.15 K) | mass density ([2]; 318.15 K) | mass density ([2]; 328.15 K) | mass density ([2]; 338.15 K) | mass density ([2]; 348.15 K) | mass density ([2]; 358.15 K)
C1CCCC1 [cyclopentane] + CCCC[n+]1cccc(C)c1.N#C[N-]C#N | 15.1 ± 1 | 14.2 ± 1 | 13.4 ± 0.9 | 12.6 ± 0.9 | 11.9 ± 0.8 | 11.3 ± 0.8 | 10.9 ± 0.7 |  |  |  |  |  | 
CCCC(=O)CC [3-hexanone] + CCCC[n+]1cccc(C)c1.N#C[N-]C#N |  |  |  | 2.77 ± 0.19 | 2.82 ± 0.19 | 2.87 ± 0.2 | 2.89 ± 0.2 |  |  |  |  |  | 
CCCOCCC [dipropyl ether] + CCCC[n+]1cccc(C)c1.N#C[N-]C#N | 18.3 ± 1.3 | 17.7 ± 1.2 | 17.2 ± 1.2 | 16.6 ± 1.1 | 16.3 ± 1.1 | 15.6 ± 1.1 | 15.2 ± 1 |  |  |  |  |  | 
CCOC(C)(C)C [2-ethoxy-2-methylpropane] + CCCC[n+]1cccc(C)c1.N#C[N-]C#N | 18 ± 1.2 | 17.5 ± 1.2 | 17 ± 1.2 | 16.7 ± 1.1 | 16.3 ± 1.1 | 15.9 ± 1.1 | 15.6 ± 1.1 |  |  |  |  |  | 
CCCO [propan-1-ol] + CCCC[n+]1cccc(C)c1.N#C[N-]C#N |  |  |  | 0.678 ± 0.046 | 0.663 ± 0.045 | 0.65 ± 0.044 | 0.638 ± 0.044 |  |  |  |  |  | 
CCCCCCCCCC [decane] + CCCC[n+]1cccc(C)c1.N#C[N-]C#N | 275 ± 19 | 244 ± 17 | 219 ± 15 | 198 ± 14 | 179 ± 12 | 163 ± 11 | 149 ± 10 |  |  |  |  |  | 
C1CCCCCCC1 [cyclooctane] + CCCC[n+]1cccc(C)c1.N#C[N-]C#N | 35.1 ± 2.4 | 32 ± 2.2 | 29.7 ± 2 | 27.8 ± 1.9 | 25.8 ± 1.8 | 24.2 ± 1.7 | 22.7 ± 1.6 |  |  |  |  |  | 
CCC(=O)CC [pentan-3-one] + CCCC[n+]1cccc(C)c1.N#C[N-]C#N |  |  | 1.84 ± 0.12 | 1.89 ± 0.13 | 1.94 ± 0.13 | 1.97 ± 0.13 | 2.01 ± 0.14 |  |  |  |  |  | 
CCCC[n+]1cccc(C)c1.N#C[N-]C#N [1-butyl-3-methylpyridinium dicyanamide] |  |  |  |  |  |  |  | 1040.66 ± 2.1 kg/m3 | 1034.63 ± 2.1 kg/m3 | 1028.66 ± 2.1 kg/m3 | 1022.75 ± 2.1 kg/m3 | 1016.77 ± 2 kg/m3 | 1010.8 ± 2 kg/m3
CCC(C)(C)C [2,2-dimethylbutane] + CCCC[n+]1cccc(C)c1.N#C[N-]C#N | 57.3 ± 3.9 | 52 ± 3.6 | 47.4 ± 3.2 | 42.9 ± 2.9 | 39.4 ± 2.7 | 36.4 ± 2.5 | 33.6 ± 2.3 |  |  |  |  |  | 
CCCCC(C)=O [2-hexanone] + CCCC[n+]1cccc(C)c1.N#C[N-]C#N |  |  | 2.44 ± 0.17 | 2.48 ± 0.17 | 2.54 ± 0.17 | 2.59 ± 0.18 | 2.63 ± 0.18 |  |  |  |  |  | 
c1ccncc1 [pyridine] + CCCC[n+]1cccc(C)c1.N#C[N-]C#N |  |  |  | 0.718 ± 0.048 | 0.731 ± 0.048 | 0.754 ± 0.05 | 0.768 ± 0.05 |  |  |  |  |  | 
CC(C)CC(C)(C)C [2,2,4-trimethylpentane] + CCCC[n+]1cccc(C)c1.N#C[N-]C#N | 104 ± 7 | 93.3 ± 6.4 | 85.8 ± 5.9 | 78.3 ± 5.4 | 72.6 ± 5 | 67 ± 4.6 | 61.7 ± 4.2 |  |  |  |  |  | 
C=CCCCCCCCC [1-decene] + CCCC[n+]1cccc(C)c1.N#C[N-]C#N | 109 ± 7 | 101 ± 7 | 93.8 ± 6.4 | 88.4 ± 6.1 | 83.2 ± 5.7 | 78.1 ± 5.4 | 73.9 ± 5.1 |  |  |  |  |  | 
CC1CCCCC1 [methylcyclohexane] + CCCC[n+]1cccc(C)c1.N#C[N-]C#N | 34.1 ± 2.3 | 31.5 ± 2.2 | 29.3 ± 2 | 27.3 ± 1.9 | 25.5 ± 1.7 | 23.9 ± 1.6 | 22.6 ± 1.5 |  |  |  |  |  | 
CC#N [acetonitrile] + CCCC[n+]1cccc(C)c1.N#C[N-]C#N |  |  |  | 0.736 ± 0.049 | 0.748 ± 0.049 | 0.76 ± 0.05 | 0.764 ± 0.05 |  |  |  |  |  | 
C1CCOC1 [tetrahydrofuran] + CCCC[n+]1cccc(C)c1.N#C[N-]C#N | 1.38 ± 0.09 | 1.4 ± 0.09 | 1.43 ± 0.09 | 1.45 ± 0.1 | 1.47 ± 0.1 | 1.5 ± 0.1 | 1.53 ± 0.1 |  |  |  |  |  | 
C1=CCCCC1 [cyclohexene] + CCCC[n+]1cccc(C)c1.N#C[N-]C#N | 9.2 ± 0.63 | 8.87 ± 0.61 | 8.55 ± 0.58 | 8.27 ± 0.56 | 7.99 ± 0.54 | 7.76 ± 0.53 | 7.54 ± 0.51 |  |  |  |  |  | 
C=CCCC [1-pentene] + CCCC[n+]1cccc(C)c1.N#C[N-]C#N | 15.3 ± 1 | 14.7 ± 1 | 14.1 ± 1 | 13.7 ± 0.9 | 13.1 ± 0.9 | 12.6 ± 0.9 | 12.2 ± 0.8 |  |  |  |  |  | 
Cc1ccc(C)cc1 [1,4-dimethylbenzene] + CCCC[n+]1cccc(C)c1.N#C[N-]C#N |  |  | 2.86 ± 0.19 | 2.92 ± 0.2 | 3.02 ± 0.21 | 3.08 ± 0.21 | 3.17 ± 0.22 |  |  |  |  |  | 
C#CCCCCCC [1-octyne] + CCCC[n+]1cccc(C)c1.N#C[N-]C#N | 9.22 ± 0.63 | 9.32 ± 0.64 | 9.42 ± 0.64 | 9.52 ± 0.65 | 9.6 ± 0.65 | 9.68 ± 0.66 | 9.75 ± 0.67 |  |  |  |  |  | 
CCOCC [diethyl ether] + CCCC[n+]1cccc(C)c1.N#C[N-]C#N | 6.37 ± 0.43 | 6.33 ± 0.43 | 6.29 ± 0.43 | 6.26 ± 0.43 | 6.22 ± 0.42 | 6.19 ± 0.42 | 6.15 ± 0.42 |  |  |  |  |  | 
CCC(C)(C)OC [2-methoxy-2-methylbutane] + CCCC[n+]1cccc(C)c1.N#C[N-]C#N | 9.8 ± 0.67 | 9.71 ± 0.66 | 9.59 ± 0.65 | 9.51 ± 0.65 | 9.44 ± 0.64 | 9.35 ± 0.64 | 9.27 ± 0.63 |  |  |  |  |  | 
C#CCCCC [1-hexyne] + CCCC[n+]1cccc(C)c1.N#C[N-]C#N | 4.13 ± 0.28 | 4.25 ± 0.29 | 4.35 ± 0.3 | 4.45 ± 0.3 | 4.55 ± 0.31 | 4.62 ± 0.31 | 4.72 ± 0.32 |  |  |  |  |  | 
CCO [ethanol] + CCCC[n+]1cccc(C)c1.N#C[N-]C#N |  |  |  | 0.549 ± 0.04 | 0.545 ± 0.04 | 0.541 ± 0.04 | 0.537 ± 0.039 |  |  |  |  |  | 
O [water] + CCCC[n+]1cccc(C)c1.N#C[N-]C#N |  |  |  | 0.294 ± 0.031 | 0.302 ± 0.031 | 0.307 ± 0.031 | 0.314 ± 0.031 |  |  |  |  |  | 
